Measurements reported in article PMC12196476, “New Nitrogen-, Oxygen-, and Sulfur-Containing Heterocyclic Compounds as Anti-Colon Cancer Agents: Synthesis, Multitargeted Evaluations, Molecular Docking Simulations and ADMET Predictions” (Pharmaceuticals, 2025).

Columns and labels:
[1] = DPPH radical scavenging assay; conditions: three independent experiments; read-out: Mean IC50 (mM) for initial DPPH radicals ± SD
Procedure: The antioxidant activities of the studied compounds were assessed using the 1,1-diphenyl-2-picrylhydrazyl (DPPH) radical scavenging method as detailed by Bersuder et al.. The results were expressed as IC50 (mM)—the concentration of the test compound required to neutralize 50% of DPPH radicals.
The antioxidant efficiencies of target compounds were determined using the 1,1-diphenyl-2-picrylhydrazyl (DPPH) radical scavenging method as detailed by Bersuder et al.. […]
S3.2. Evaluation of Biological Activities.
S3.2.1. In vitro DPPH radical scavenging assay.
The antioxidant efficiencies of compounds—3a−e, 8, 9a−c, 13, 14, 17, 18a−h, 20, 22, 23, and 25—were
determined using the 1,1-diphenyl-2-picrylhydrazyl (DPPH) radical scavenging method as
detailed by Bersuder et al.. Fundamentally, the purple color of the stabilized DPPH radical
fades in the presence of an antioxidant, thus, the change of absorbance can be followed
spectrophotometrically at 519 nm. In the assay, equal volumes (0.5 mL) of DPPH ethanolic solution
and each compound (0-2 mg/mL in DMSO) or butylated hydroxytoluene (BHT) as the reference
were mixed well by shaking. The negative control consisted of the same amount of DMSO and
DPPH solution. After, incubation all mixtures at room temperature in the dark for one hour, the
absorbance of the residual DPPH radicals was measured at 519 nm using the UV‐vis
spectrophotometer. The DPPH radical scavenging activity of each compound (%) was calculated
Scavenging activity = (1 − Acompound/AControl) * 100, where Acompound and Acontrol the absorbance values
of each tested compound (or BHT) and the negative control, respectively. The half maximal
inhibitory concentration (IC50) for each compound in mg/mL was deduced by graphing the dose-
response curve relating the scavenging activity (%) to the compound concentration. Data points
represent the mean ± standard deviation (SD) of three independent determinations.

[2] = tested on: HCT-116 colon carcinoma cells; experiment: Cell viability, LDH release assay, HCT-116; conditions: for viability at 100 µg/mL / IC50: Homo sapiens, HCT-116, 48 h; for viability at 100 µg/mL: read-out: Mean % of viable cells ± SD, HCT-116, 100 µg/mL, 48 h, LDH release assay; for IC50: read-out: Mean IC50 Values in µM ± SD, HCT-116 cells
Procedure: (§1) The studied compounds were also screened for their cytotoxic effects on HCT-116 and LoVo colon carcinoma cells, as well as normal HUVECs, using the standard LDH assay at a concentration of 100 µg/mL.
(§2) The antiproliferative activities of the newly synthesized compounds 3a–e, 8, 9a–c, 13, 14, 17, 18a–h, 20, 22, 23 and 25 were examined on human colon HCT-116 and LoVo cell lines as well as HUVEC (American Type Culture Collection, Manassas, VA, USA). […]
(§3) S3.2.4. Cell culture and viability assay.
(§4) The cytotoxic activities of the newly synthesized compounds (3a-e, 8, 9a-c, 13, 14, 17, 18a-h, 20, 22,
(§5) 23, and 25) were examined on human colon cancer cell lines HCT-116 and Lovo (American Type
(§6) Culture Collection, USA). Various concentrations (50, 100, 200, and 400 μg/mL) of test compounds
(§7) were prepared in Dulbecco’s Modified Eagles Medium (PAN-Biotech, Barcelona, Spain),

[3] = tested on: LoVo colon carcinoma cells; experiment: Cell viability, LDH release assay, LoVo; conditions: for viability at 100 µg/mL / IC50: Homo sapiens, LoVo, 48 h; for viability at 100 µg/mL: read-out: Mean % of viable cells ± SD, LoVo, 100 µg/mL, 48 h, LDH release assay; for IC50: read-out: Mean IC50 Values in µM ± SD, LoVo cells
Procedure: as §1, §2, §3, §4, §5, §6, §7

[4] = Cell viability, LDH release assay, normal HUVECs; conditions: human, normal HUVECs, Mean % of viable cells ± SD, HUVEC
Procedure: as §1, §2
medium served used as negative and positive controls, respectively. Percentages of viable cells […]
were calculated based on relative optical density (OD) values (at 550 nm) for compound-treated […]
wells (final concentration of 100 μg/mL), compared to the negative control, and expressed as mean value (%) ± SD from two replicates. Graphing dose-response curves representing the compound […]
concentration versus the percentages of viable cells was also conducted to deduce the half - […]
Additionally, the safety profiles of the studied compounds were assessed against normal cells […]
(HUVECs) at final concentration of 100 μg/mL . HUVECs were grown in Dulbecco’s Modified Eagle’s Medium supplemented with 10% FBS, 2 mM glutamine (Sigma Aldrich), 100 units/mL penicillin and […] streptomycin (Life Technologies; Paisley, UK). […]

PDK-1 = PDK-1 (Homo sapiens, UniProt Q15118); experiment: In vitro PDK-1 inhibition assay (Kinase-Glo luminescent kinase kit); format: biochemical; conditions: for inhibition at 100 µg/mL: three replicates, read-out: Mean Inhibition Percent ± SD, PDK-1
Chain of PDK-1 (Q15118 29-436): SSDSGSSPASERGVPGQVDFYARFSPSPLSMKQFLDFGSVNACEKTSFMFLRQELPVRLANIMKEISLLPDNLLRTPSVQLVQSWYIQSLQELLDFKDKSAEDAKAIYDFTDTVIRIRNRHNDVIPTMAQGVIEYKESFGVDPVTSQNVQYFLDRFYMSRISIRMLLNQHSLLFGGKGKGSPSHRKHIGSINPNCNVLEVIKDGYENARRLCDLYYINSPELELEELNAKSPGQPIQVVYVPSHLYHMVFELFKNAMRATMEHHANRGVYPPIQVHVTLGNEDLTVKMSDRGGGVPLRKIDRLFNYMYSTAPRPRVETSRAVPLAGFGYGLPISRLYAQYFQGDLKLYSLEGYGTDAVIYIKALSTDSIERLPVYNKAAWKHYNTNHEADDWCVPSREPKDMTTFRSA
Procedure: Principally, the PDK-1 inhibitory activities were evaluated using the non-radioactive Kinase-Glo™ Luminescent Kinase Kit (Promega Corporation, Madison, WI, USA) following the instructions of the manufacturer.
S3.2.2. In vitro PDK-1 inhibition assay.
The PDK-1 inhibitory activities of the test compounds were evaluated using the non-radioactive
Kinase-Glo™ Luminescent Kinase kit (Promega Corporation, Madison, WI, USA), following the
manufacturer’s protocol. Briefly, 5 μL of assay buffer—containing 10 × 250 mM Tris-HCl, 50 mM
MgCl2, 5 mM ethyleneglycol-bis(β-aminoethylether)-N,N,N′,N′-tetraacetic acid (EGTA), 10 mM
ethylenedi- aminetetraacetic acid (EDTA), and 10 mM dithiothreitol (DTT)—was added to each
well of a 96-well plate, along with 25 μL of distilled water. Subsequently, 5 μL of each test
compound at various concentrations (50, 100, 200 and 300 μg/mL in 1% DMSO) was added to the
respective wells, except for the two control wells, which received 5 μL of either PBS buffer or 1%
DMSO. Then, 5 μL of pyruvate dehydrogenase E1 (PDH E1) protein (10 μM) and 5 μL of ATP
(10 μM) were added to each well. To initiate phosphorylation, 5 μL of PDK-1 (20 μM) in protein
buffer (1 mM MgCl2, 2000 mM KCl, 40 mM K3PO4) was added to all the wells except the control
wells, which received 5 μL of protein buffer instead. The plate was then mixed thoroughly and
incubated at 37 °C for 30 minutes. After incubation, 50 μL of kinase-Glo® reagent was added to each
well, followed by a 10-minute incubation at room temperature with gentle shaking to stabilize the
luminescent signal. Luminescence was then measured using a microplate reader.
The IC50 value—defined as the concentration of a compound required to reduce luminescence by
50%, compared to untreated control wells—was determined for each compound from the
corresponding dose–response curve generated by plotting PDK-1 inhibition (%) versus compound
concentration. Sodium dichloroacetate (SDA, 1000 μM) was used as a reference PDK-1inhibitor. […]

[5] = target: recombinant human LDHA protein (Homo sapiens, UniProt P00338); experiment: In vitro LDHA inhibitory assay (NADH consumption); format: biochemical; conditions: for inhibition at 100 µg/mL: three replicates, read-out: Mean Inhibition Percent ± SD, LDHA
Excerpt: The LDHA inhibitory efficiencies were investigated on Spectramax M2 spectrofluorometer via measuring the amounts of the consumed NADH^40 using an NAD^+/NADH quantification kit. […]
S3.2.3. In vitro LDHA inhibitory assay.
The LDHA inhibitory activity of the test compounds was investigated using Spectramax M2
spectrofluorometer by measuring the amounts of the consumed NADH [42] employing
NAD+/NADH quantification kit. Briefly, the assay medium containing various concentrations of
each test compound (50, 100, 200 and 300 μg/mL) was incubated in assay medium composed of 20
mM of HEPES-K+ buffer (pH 7.2), 20 μM of NADH, 2 mM of pyruvate and 10 ng of purified
recombinant human LDHA protein for 10 min utes. The activity of LDHA would result in reduction
of pyruvate into lactate with concomitant oxidation of NADH to NAD +. Since NADH (reduced
LDHA, could be inversely quantified by monitoring the change in the intensity of the fluorescence
at 340 nm over a 10-minute period. The rate of the fluorescence change (slope) in treated samples
was compared to that obtained from negative control experiment (100 % enzymatic activity) to
determine the percentage of inhibition. The IC50 value—defined as the compound concentration
required to reduce the luminescence by 50%, compared to untreated control wells—was
determined for each compound from the corresponding dose–response curve generated by
plotting LDHA inhibition (%) against compound concentration.
was used as the reference LDHA inhibitor. […]

[6] = 0.1% Triton X-100 in assay medium

| IC50 [1] [mM] | inhibition at 100 µg/mL (PDK-1) [%] | inhibition at 100 µg/mL [5] [%] | IC50 [2] [µM] | IC50 [3] [µM] | IC50 (PDK-1; three independent experiments, read-out: Mean IC50 µM ± SD, PDK-1) [µM] | IC50 ([5]; three independent experiments, read-out: Mean IC50 µM ± SD, LDHA) [µM] | inhibition at 1000 µM ([5]; SO at 1000 µM (111.03 µg/mL), read-out: Mean Inhibition Percent, LDHA (reference inhibitor)) [%] | Molecule | viability at 100 µg/mL [2] [%] | viability at 100 µg/mL [3] [%] | viability at 48 h, 100 µg/mL [4] [%] | Mean % of viable cells, HCT-116 (positive control) [2, 6] [%] | Mean % of viable cells, LoVo (positive control) [3, 6] [%] |
| --- | --- | --- | --- | --- | --- | --- | --- | --- | --- | --- | --- | --- | --- |
| 0.245 ± 0.027 |  |  |  |  |  |  |  | Cc1cc(C(C)(C)C)c(O)c(C(C)(C)C)c1 [BHT, butylated hydroxytoluene, reference compound] |  |  |  |  |  |
| 0.214 ± 0.027 | 25.1 ± 3.04 | 25.8 ± 2.48 |  |  |  |  |  | CCOC(=O)c1c(/N=C/c2cc(Br)c(O)c(OC)c2)sc2c1CCC(c1ccccc1)C2 (stereo not drawn) [Compound 3a, (E)-Ethyl2-((3-bromo-4-hydroxy-5-methoxybenzylidene)amino)-6-phenyl-4,5,6,7-tetrahydrobenzo[b]thiophene-3-carboxylate] | 60.7 ± 3.06 | 57.7 ± 1.53 | 85 ± 1.73 |  |  |
| 0.522 ± 0.025 | 94.7 ± 2.33 | 82.8 ± 3.18 | 170 | 190 | 147 ± 5.95 | 167 ± 10.1 |  | COc1cc(OC)c(/C=N/c2sc3c(c2C#N)CCCC3)c(OC)c1 [Compound 3b, (E)-2-((2,4,6-Trimethoxybenzylidene)amino)-4,5,6,7-tetrahydrobenzo[b]thiophene-3-carbonitrile] | < 29 | < 29 | ~90 |  |  |
| 0.476 ± 0.038 | 7.6 ± 0.85 | 40 ± 1.41 |  |  |  |  |  | COc1cc(/C=N/c2ncnc3sc4c(c23)CCCC4)cc(Br)c1O [Compound 3c, (E)-2-Bromo-6-methoxy-4-(((5,6,7,8-tetrahydrobenzo[4,5]thieno[2,3-d]pyrimidin-4-yl)imino)methyl)phenol] | 89.3 ± 4.16 | 95.7 ± 1.53 | 93 ± 2.65 |  |  |
| 0.89 ± 0.039 | 31.2 ± 3.18 | 28.3 ± 1.84 |  |  |  |  |  | Oc1ccc2ccccc2c1/C=N/c1ncnc2sc3c(c12)CCCC3 [Compound 3e, (E)-1-(((5,6,7,8-Tetrahydrobenzo[4,5]thieno[2,3-d]pyrimidin-4-yl)imino)methyl) naphthalene-2-ol] | 57 ± 1.73 | 62.3 ± 2.52 | 96.7 ± 1.16 |  |  |
|  |  |  | 27 ± 1.87 | 20 ± 3.21 |  |  |  | O=c1[nH]cc(F)c(=O)[nH]1 [Compound 5-FU, 5-Fluorouracil, reference compound] |  |  |  |  |  |
| 1.52 ± 0.07 | 16.6 ± 2.19 | 23.2 ± 1.06 | 410 ± 13.5 | 320 ± 7.44 |  |  |  | CCOC(=O)c1sc(N2C(=O)CSCC2=O)nc1C [Compound 8, Ethyl 2-(3,5-Dioxothiomorpholino)-4-methylthiazole-5-carboxylate] | 26.5 ± 2.12 | 13.5 ± 0.71 | 84.6 ± 2.54 |  |  |
| 1.55 ± 0.035 | 26.9 ± 2.62 | 40.5 ± 2.19 |  |  |  |  |  | CCOC(=O)c1sc(/N=C/c2cc(Br)c(O)c(OC)c2)nc1C [Compound 9a, Ethyl (E)-2-((3-bromo-4-hydroxy-5-methoxybenzylidene)amino)-4-methyl thiazole-5-carboxylate] | 72 ± 2.65 | 65.3 ± 3.54 | 70.3 ± 1.53 |  |  |
| 1.81 ± 0.115 | 30.1 ± 1.56 | 33.4 ± 1.98 |  |  |  |  |  | CCOC(=O)c1sc(/N=C/c2cc(OC)c(OC)c(OC)c2)nc1C [Compound 9b, Ethyl(E)-4-methyl-2-((3,4,5-trimethoxybenzylidene)amino)thiazole-5-carboxylate] | 54 ± 4.58 | 60.3 ± 2.83 | 81.7 ± 2.52 |  |  |
| 0.881 ± 0.041 | 48.8 ± 1.77 | 67.3 ± 3.32 |  |  |  |  |  | CCOC(=O)c1sc(/N=C/c2c(O)ccc3ccccc23)nc1C [Compound 9c, Ethyl(E)-2-(((2-hydroxynaphthalen-1-yl)methylene)amino)-4-methylthiazole-5-carboxylate] | 64.3 ± 3.06 | 60.3 ± 2.12 | 80.7 ± 3.22 |  |  |
| 1.82 ± 0.188 | 40.5 ± 2.76 | 40.2 ± 3.18 |  |  |  |  |  | COc1cc2nc(C)n(-c3ccc(-c4nc5ccccc5s4)cc3)c(=O)c2cc1OC [Compound 13, 3-(4-(Benzo[d]thiazol-2-yl)phenyl)-6,7-dimethoxy-2-methylquinazolin-4(3H)-one] | 71.5 ± 2.12 | 86.5 ± 2.12 | 84 ± 2.33 |  |  |
|  |  |  |  |  |  |  | 100 | NC(=O)C(=O)O [SO, sodium oxamate, reference compound] |  |  |  |  |  |
|  |  |  |  |  |  |  |  | Triton X-100 [reference compound] |  |  |  | 0 | 0 |
